Active and inactive are the calls of the source. The calls are words filed in the database; no cut-off is given here. Where a SMILES comes first, the peptide text is derived from it. [ ]: non-standard residue; d: D form. dHyp = O=C(O)[C@H]1C[C@H](O)CN1
Columns and labels:
C6 [1] = assay: Reduction of simulated ischemia-induced calcein uptake in rat C6 cells; assay type: functional, cell-based
Mus musculus [2] = assay: Antiarrhythmic effect in calcium chloride-induced CD1 mouse arrhythmia model assessed as gap-junction intracellular communication re-establishment-mediated prolongation of time to onset of cardiac conduction block at 1 pmol/kg, iv relative to control; assay type: functional, Heart
Mus musculus [3] = assay: Antiarrhythmic effect in calcium chloride-induced CD1 mouse arrhythmia model assessed as gap-junction intracellular communication re-establishment-mediated prolongation of time to onset of cardiac conduction block at 10 pmol/kg, iv relative to control; assay type: functional, Heart
Mus musculus [4] = assay: Antiarrhythmic effect in calcium chloride-induced CD1 mouse arrhythmia model assessed as gap-junction intracellular communication re-establishment-mediated prolongation of time to onset of cardiac conduction block at 100 pmol/kg, iv relative to control; assay type: functional, Heart
Mus musculus [5] = assay: Antiarrhythmic effect in calcium chloride-induced CD1 mouse arrhythmia model assessed as gap-junction intracellular communication re-establishment-mediated prolongation of time to onset of cardiac conduction block at 1 nmol/kg, iv relative to control; assay type: functional, Heart
Cardiac atrium = assay: Prevention of metabolic stress-induced conduction velocity slowing in Sprague-Dawley rat atrium at 10 uM by microelectrode based assay; assay type: functional, tissue-based
Mus musculus [6] = assay: Antiarrhythmic effect in calcium chloride-induced CD1 mouse arrhythmia model assessed as gap-junction intracellular communication re-establishment-mediated prolongation of time to onset of cardiac conduction block at 10 mg/kg, po relative to control; assay type: functional, organism-based; parameters: dose 10 mg/kg; settings: Heart
[7] = Volume of distribution at steady state in rat at 0.5 mg/kg, iv; assay type: ADME, organism-based; parameters: dose 0.5 mg/kg, route intravenous; settings: in vivo, read-out: Vdss
[8] = Half life in rat at 0.5 mg/kg, iv; assay type: ADME, organism-based; parameters: dose 0.5 mg/kg, route intravenous; settings: in vivo
Rattus norvegicus [9] = assay: (§1) Oral bioavailability in rat at 5 mg/kg; assay type: ADME, organism-based; settings: in vivo
[10] = Half life in rat at 5 mg/kg, po; assay type: ADME, organism-based; parameters: dose 5 mg/kg, route oral; settings: in vivo
[11] = Cmax in rat at 5 mg/kg, po; assay type: ADME, organism-based; parameters: dose 5 mg/kg, route oral; settings: in vivo
[12] = Tmax in rat at 5 mg/kg, po; assay type: ADME, organism-based; parameters: dose 5 mg/kg, route oral; settings: in vivo
Rattus norvegicus [13] = assay: (§2) AUC in rat at 5 mg/kg, po; assay type: ADME, organism-based, Plasma; parameters: dose 5 mg/kg, route oral; settings: in vivo
[14] = Clearance in rat at 0.5 mg/kg, iv; assay type: ADME, organism-based; parameters: dose 0.5 mg/kg, route intravenous; settings: in vivo
[15] = as §1; assay type: ADME, organism-based; settings: in vivo
[16] = as §2; assay type: ADME, organism-based, Plasma; parameters: dose 5 mg/kg, route oral; settings: plasma
[17] = Oral bioavailability in dog; assay type: ADME, organism-based, Canis lupus familiaris; settings: in vivo
C6 [18] = assay: Reduction of simulated ischemia-induced cell swelling in rat C6 cells; assay type: functional, cell-based
Mus musculus [19] = assay: Antiarrhythmic effect in calcium chloride-induced po dosed CD1 mouse arrhythmia model assessed as gap-junction intracellular communication re-establishment-mediated prolongation of time to onset of cardiac conduction block relative to control; assay type: functional, Heart
[20] = molecular target: Voltage-gated inwardly rectifying potassium channel KCNH2 (Homo sapiens, UniProt Q12809); assay: Inhibition of human ERG
Cytochrome P450 3A4 = Cytochrome P450 3A4 (Homo sapiens, UniProt P08684); assay: Inhibition of CYP3A4 at 3 uM; assay type: ADME
Cytochrome P450 2D6 = Cytochrome P450 2D6 (Homo sapiens, UniProt P10635); assay: Inhibition of CYP2D6 at 3 uM; assay type: ADME
Cytochrome P450 2C9 = Cytochrome P450 2C9 (Homo sapiens, UniProt P11712); assay: Inhibition of CYP2C9 at 3 uM; assay type: ADME
Chain of Cytochrome P450 2C9 (P11712 whole entry): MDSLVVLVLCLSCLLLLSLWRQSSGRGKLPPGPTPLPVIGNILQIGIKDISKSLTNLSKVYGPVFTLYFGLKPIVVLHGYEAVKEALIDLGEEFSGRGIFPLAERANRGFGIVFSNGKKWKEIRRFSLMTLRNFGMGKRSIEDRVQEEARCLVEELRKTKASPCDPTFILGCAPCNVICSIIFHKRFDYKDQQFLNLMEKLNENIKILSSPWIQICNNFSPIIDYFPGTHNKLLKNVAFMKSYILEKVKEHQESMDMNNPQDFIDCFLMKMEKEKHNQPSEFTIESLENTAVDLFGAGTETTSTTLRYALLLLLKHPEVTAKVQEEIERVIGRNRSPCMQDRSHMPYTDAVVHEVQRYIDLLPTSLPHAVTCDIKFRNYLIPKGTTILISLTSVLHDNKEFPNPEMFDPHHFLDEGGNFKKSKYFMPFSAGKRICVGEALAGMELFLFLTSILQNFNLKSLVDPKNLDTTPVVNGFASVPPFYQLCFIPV

Chain of Cytochrome P450 3A4 (P08684 whole entry): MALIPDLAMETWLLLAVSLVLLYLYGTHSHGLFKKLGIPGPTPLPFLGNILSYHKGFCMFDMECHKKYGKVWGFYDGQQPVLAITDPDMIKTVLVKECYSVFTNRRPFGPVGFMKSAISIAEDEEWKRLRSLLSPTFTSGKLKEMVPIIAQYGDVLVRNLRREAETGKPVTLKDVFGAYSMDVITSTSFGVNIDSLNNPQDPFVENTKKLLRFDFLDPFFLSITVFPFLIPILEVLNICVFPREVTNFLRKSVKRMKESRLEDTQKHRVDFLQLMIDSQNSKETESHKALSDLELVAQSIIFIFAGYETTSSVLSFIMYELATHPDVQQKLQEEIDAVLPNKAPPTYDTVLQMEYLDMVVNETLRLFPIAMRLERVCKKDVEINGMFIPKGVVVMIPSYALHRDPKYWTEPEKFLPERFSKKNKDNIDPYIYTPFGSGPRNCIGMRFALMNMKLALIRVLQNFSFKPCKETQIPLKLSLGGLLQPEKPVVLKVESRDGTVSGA
Chain of Cytochrome P450 2D6 (P10635 whole entry): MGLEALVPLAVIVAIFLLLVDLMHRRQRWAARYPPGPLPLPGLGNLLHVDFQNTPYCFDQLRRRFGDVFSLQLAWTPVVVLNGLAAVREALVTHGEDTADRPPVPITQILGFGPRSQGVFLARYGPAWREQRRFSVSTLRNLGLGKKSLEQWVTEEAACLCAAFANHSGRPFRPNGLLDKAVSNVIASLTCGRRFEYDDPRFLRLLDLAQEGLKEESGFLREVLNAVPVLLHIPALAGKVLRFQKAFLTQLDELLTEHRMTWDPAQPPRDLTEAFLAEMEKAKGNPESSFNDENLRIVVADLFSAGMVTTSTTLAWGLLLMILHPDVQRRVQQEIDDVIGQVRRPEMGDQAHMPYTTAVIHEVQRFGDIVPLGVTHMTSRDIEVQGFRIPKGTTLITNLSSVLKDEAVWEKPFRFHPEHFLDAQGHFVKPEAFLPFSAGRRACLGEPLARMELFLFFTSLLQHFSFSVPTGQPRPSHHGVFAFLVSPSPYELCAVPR
Chain of Voltage-gated inwardly rectifying potassium channel KCNH2 (Q12809 whole entry): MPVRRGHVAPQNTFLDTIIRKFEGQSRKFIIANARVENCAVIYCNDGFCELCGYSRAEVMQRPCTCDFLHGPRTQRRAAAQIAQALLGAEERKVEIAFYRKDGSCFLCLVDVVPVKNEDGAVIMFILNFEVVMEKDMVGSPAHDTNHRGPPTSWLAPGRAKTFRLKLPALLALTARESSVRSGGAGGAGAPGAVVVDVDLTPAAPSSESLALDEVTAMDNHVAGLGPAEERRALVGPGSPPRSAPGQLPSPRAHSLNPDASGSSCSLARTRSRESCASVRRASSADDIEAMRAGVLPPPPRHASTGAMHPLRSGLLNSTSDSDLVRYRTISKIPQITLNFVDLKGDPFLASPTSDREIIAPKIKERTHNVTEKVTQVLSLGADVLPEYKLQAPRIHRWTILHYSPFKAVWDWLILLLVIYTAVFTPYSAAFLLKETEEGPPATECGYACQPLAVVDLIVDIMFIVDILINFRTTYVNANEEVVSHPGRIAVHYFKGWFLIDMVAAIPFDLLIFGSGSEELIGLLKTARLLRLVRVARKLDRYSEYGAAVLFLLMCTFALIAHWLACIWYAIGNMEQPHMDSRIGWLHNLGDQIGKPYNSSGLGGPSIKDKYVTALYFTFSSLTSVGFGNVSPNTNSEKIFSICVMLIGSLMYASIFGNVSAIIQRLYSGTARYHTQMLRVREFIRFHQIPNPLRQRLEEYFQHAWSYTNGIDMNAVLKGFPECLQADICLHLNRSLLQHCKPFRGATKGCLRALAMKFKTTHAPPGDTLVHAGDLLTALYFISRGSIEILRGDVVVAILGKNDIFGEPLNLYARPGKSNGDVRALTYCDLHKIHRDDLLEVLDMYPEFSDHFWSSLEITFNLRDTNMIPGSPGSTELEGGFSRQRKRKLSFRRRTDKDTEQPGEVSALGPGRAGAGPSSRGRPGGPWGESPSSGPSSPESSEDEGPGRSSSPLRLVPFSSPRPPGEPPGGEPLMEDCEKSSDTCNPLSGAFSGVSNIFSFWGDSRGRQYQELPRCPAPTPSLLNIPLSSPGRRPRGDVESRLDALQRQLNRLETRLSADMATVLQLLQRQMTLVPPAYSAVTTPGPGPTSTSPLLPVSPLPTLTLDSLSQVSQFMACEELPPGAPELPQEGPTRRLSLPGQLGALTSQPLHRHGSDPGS

| Vd [7] [L/kg] | half-life [8] [min] | half-life [10] [min] | Cmax [11] [ng/mL] | Tmax [12] [min] | SMILES | Activity (Mus musculus [2]) [%] | Activity (Mus musculus [3]) [%] | Activity (Mus musculus [4]) [%] | Activity (Mus musculus [5]) [%] | Activity (Cardiac atrium) | further results |
| --- | --- | --- | --- | --- | --- | --- | --- | --- | --- | --- | --- |
|  |  |  |  |  | CC(=O)N[C@H](Cc1ccc(O)cc1)C(=O)N1CCC[C@@H]1C(=O)N1C[C@@H](O)C[C@@H]1C(=O)NCC(=O)N[C@H](C)C(=O)NCC(N)=O [ROTIGAPTIDE] (Ac-[dY][dP][dHyp]G[dA]G-NH2) | 199 | 207 | 152 | 156 | Active | Activity (C6 [1]): Dose-dependent effect; Activity (Mus musculus [6]): Active |
| 0.9 | 18 | 30 | 31.5 | 24 | NC(=O)C[C@H](NC(=O)CO)C(=O)N[C@@H](Cc1ccc(O)cc1)C(N)=O | 188 | 232 | 203 | 187 | Active | F (Rattus norvegicus [9]): 0.7%; AUC (Rattus norvegicus [13]): 36 ng·h/mL |
|  |  |  |  |  | N[C@H](CCCCNC(=O)CNC(=O)c1ccc([N+](=O)[O-])cc1)CC(=O)O | 124 | 206 | 197 | 201 |  |  |
|  |  |  |  |  | CC(=O)N[C@@H](C)C(=O)NCC(=O)N[C@@H](CC(N)=O)C(=O)N[C@@H](Cc1ccc(O)cc1)C(N)=O (Ac-AGNY-NH2) | 228 | 157 | 205 | 136 |  |  |
| 0.4 | 18 | 90 | 28 | 45 | COc1ccc(C(=O)NCC(=O)NCCCC[C@@H](N)CC(=O)O)cc1 | 220 | 133 | 128 | 164 | Active | clearance [14]: 31 mL/min/kg; bioavailability [15]: 2%; AUC [16]: 71 ng·h/mL |
| 0.61 | 48 | 114 | 105 | 30 | Cl.NCC(=O)N1C[C@H](NC(=O)c2ccccc2)C[C@H]1C(=O)O | 162 | 207 | 148 | 173 | Active | Activity (C6 [1]): Dose-dependent effect; clearance [14]: 22 mL/min/kg; bioavailability [15]: 9%; AUC [16]: 360 ng·h/mL; bioavailability [17]: 21%; Activity (C6 [18]): Active; Activity (Mus musculus [19]): 200%; Activity [20]: Not Active; Activity (Cytochrome P450 3A4): Not Active; Activity (Cytochrome P450 2D6): Not Active; Activity (Cytochrome P450 2C9): Not Active |
|  |  |  |  |  | NCC(=O)NCCCC[C@@H](NC(=O)c1ccc([N+](=O)[O-])cc1)C(=O)O | 192 | 177 | 151 | 158 |  |  |
